Reference: patent publication US12441768B2, “Compositions and methods for treating endometriosis” (EndoMet Biosciences, Inc., priority 2018, dated 2025)
pEC50, pKd: −log10 of the molar value. Where a SMILES comes first, the peptide text is derived from it.

Assays:
[1] = biological target: Wnt-responsive promoter (TCF/LEF); assay: Wnt-dependent luciferase reporter assay; assay type: cell-based, murine
Procedure, shortened: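 EC50 (uM) derived from inhibition of luminescence in Wnt3a-stimulated murine 3T3 cells expressing luciferase under a TCF/LEF promoter, with peptides added across a concentration range and vehicle as control.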

in vitro = settings: % Viability non-Wnt responsive cells
β-catenin = biological target: T1, β-catenin (Homo sapiens, UniProt P35222); assay: KD50 measurement using competitive fluorescence polarization (FP) with labelled TCF4; assay type: binding; settings: fluorescence polarization, β-catenin; for pKd: read-out: β-Cat FP KD
T1 sequence (P35222 1-781): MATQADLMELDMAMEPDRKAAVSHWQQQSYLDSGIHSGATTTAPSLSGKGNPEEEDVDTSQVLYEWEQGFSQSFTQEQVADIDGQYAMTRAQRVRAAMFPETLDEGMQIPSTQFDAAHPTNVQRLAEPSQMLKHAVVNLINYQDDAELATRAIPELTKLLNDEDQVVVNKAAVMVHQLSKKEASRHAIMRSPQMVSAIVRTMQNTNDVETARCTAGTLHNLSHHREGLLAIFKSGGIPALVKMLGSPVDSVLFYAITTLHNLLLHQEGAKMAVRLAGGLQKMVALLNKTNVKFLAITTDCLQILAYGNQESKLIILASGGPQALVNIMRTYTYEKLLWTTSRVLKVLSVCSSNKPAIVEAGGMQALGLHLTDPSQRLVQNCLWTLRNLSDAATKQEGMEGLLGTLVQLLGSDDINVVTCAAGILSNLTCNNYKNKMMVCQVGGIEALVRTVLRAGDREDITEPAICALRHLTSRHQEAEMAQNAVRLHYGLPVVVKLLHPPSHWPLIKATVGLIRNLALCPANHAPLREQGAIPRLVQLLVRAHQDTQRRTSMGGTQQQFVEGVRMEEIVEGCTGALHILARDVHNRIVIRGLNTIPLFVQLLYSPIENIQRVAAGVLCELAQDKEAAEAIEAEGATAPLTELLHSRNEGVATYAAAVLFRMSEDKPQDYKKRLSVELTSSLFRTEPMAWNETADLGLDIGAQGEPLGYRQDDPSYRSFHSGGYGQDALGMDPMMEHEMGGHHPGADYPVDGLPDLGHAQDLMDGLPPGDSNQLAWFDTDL
Procedure, shortened: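 Tracer: labelled TCF4, 5 nM; protein 100 nM; RT incubation. Competitor dilution series 10 nM–30 uM. FP read ex 470 / em 520 nm. n = 3.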

pEC50 [1]	pKd (β-catenin)	β-Cat FP Hill slope (β-catenin)	SMILES	viability (in vitro) [%]
> 5.12	< 4.52		CC[C@H](C)[C@H](NC(=O)[C@H](CC(C)C)NC(=O)[C@H](Cc1ccccc1)NC(=O)[C@H](Cc1c[nH]c2ccccc12)NC(=O)[C@H](CCSC)NC(=O)[C@H](CCCNC(=N)N)NC(=O)[C@H](CO)NC(=O)[C@@H](N)CCSC)C(=O)N[C@@H](CO)C(=O)N[C@@H](Cc1ccccc1)C(=O)N[C@@H](Cc1c[nH]c2ccccc12)C(=O)N[C@@H](CCSC)C(=O)NCC(=O)O [compound 14] (H-MSRMWFLISFWMG-OH)	98
> 5.12			CC[C@H](C)[C@H](NC(=O)[C@H](CC(C)C)NC(=O)[C@H](Cc1ccccc1)NC(=O)[C@H](Cc1c[nH]c2ccccc12)NC(=O)[C@H](CCSC)NC(=O)[C@H](CCCNC(=N)N)NC(=O)[C@@H](NC(=O)[C@@H](N)CCSC)[C@@H](C)CC)C(=O)N[C@@H](CO)C(=O)N[C@@H](Cc1ccccc1)C(=O)N[C@@H](Cc1c[nH]c2ccccc12)C(=O)NCC(=O)O [compound 15] (H-MIRMWFLISFWG-OH)	103
4.65 to 4.82	< 4.52		CC[C@H](C)[C@H](NC(=O)[C@H](CC(C)C)NC(=O)[C@H](Cc1ccccc1)NC(=O)[C@H](Cc1c[nH]c2ccccc12)NC(=O)[C@H](CCSC)NC(=O)[C@H](CCCNC(=N)N)NC(=O)[C@H](CO)NC(=O)[C@@H](N)CCSC)C(=O)N[C@@H](CO)C(=O)N[C@@H](Cc1ccccc1)C(=O)N[C@@H](Cc1c[nH]c2ccccc12)C(=O)N(C)[C@@H](C)C(=O)NCC(=O)O [compound 16] (HELM PEPTIDE1{M.S.R.M.W.F.L.I.S.F.W.[meA].G}$$$$V2.0)	92
> 5.12	6.00 to 6.40	1.66	CC[C@H](C)[C@H](NC(=O)[C@H](CC(C)C)NC(=O)[C@H](Cc1ccccc1)NC(=O)[C@H](Cc1c[nH]c2ccccc12)NC(=O)[C@@H](N)CCSC)C(=O)N[C@@H](CO)C(=O)N[C@@H](Cc1ccccc1)C(=O)N[C@@H](Cc1c[nH]c2ccccc12)C(=O)NCC(=O)O [compound 17] (H-MWFLISFWG-OH)	98
< 4.52	< 4.52		CC[C@H](C)[C@@H]1NC(=O)[C@H](CO)NC(=O)[C@H](CCC(=O)O)NC(=O)[C@H](C)N(C)C(=O)[C@@H](N)CCCCNC(=O)CNC(=O)[C@H](Cc2c[nH]c3ccccc23)NC(=O)[C@H](C(C)C)NC(=O)[C@H](CCCNC(=N)N)NC(=O)[C@H](CCC(N)=O)NC(=O)[C@H](C(C)C)NC(=O)[C@H](Cc2c[nH]cn2)NC(=O)[C@H](CCC(=O)O)NC(=O)[C@H](CC(=O)O)NC(=O)[C@H](CC(C)C)NC1=O [compound 18] (HELM PEPTIDE1{K.[meA].E.S.I.L.D.E.H.V.Q.R.V.W.G}$PEPTIDE1,PEPTIDE1,1:R3-15:R2$$$V2.0; bridges inferred)	90.2
< 4.52	< 4.52		CC[C@H](C)[C@@H]1NC(=O)[C@H](CO)NC(=O)[C@H](CCC(N)=O)NC(=O)[C@H](C)N(C)C(=O)[C@@H](N)CCCCNC(=O)CNC(=O)[C@H](Cc2c[nH]c3ccccc23)NC(=O)[C@H](C(C)C)NC(=O)[C@H](CCCNC(=N)N)NC(=O)[C@H](CCC(N)=O)NC(=O)[C@H](C(C)C)NC(=O)[C@H](Cc2c[nH]cn2)NC(=O)[C@H](CCC(=O)O)NC(=O)[C@H](CC(=O)O)NC(=O)[C@H](CC(C)C)NC1=O [compound 19] (HELM PEPTIDE1{K.[meA].Q.S.I.L.D.E.H.V.Q.R.V.W.G}$PEPTIDE1,PEPTIDE1,1:R3-15:R2$$$V2.0; bridges inferred)	104
< 4.52	< 4.52		CC[C@H](C)[C@@H]1NC(=O)[C@H](CO)NC(=O)[C@H](CCC(N)=O)NC(=O)[C@H](C)N(C)C(=O)[C@H](Cc2c[nH]c3ccccc23)NC(=O)[C@@H](N)CCCCNC(=O)CNC(=O)[C@H](Cc2c[nH]c3ccccc23)NC(=O)[C@H](C(C)C)NC(=O)[C@H](CCCNC(=N)N)NC(=O)[C@H](CCC(N)=O)NC(=O)[C@H](C(C)C)NC(=O)[C@H](Cc2c[nH]cn2)NC(=O)[C@H](CCC(N)=O)NC(=O)[C@H](CC(N)=O)NC(=O)[C@H](CC(C)C)NC1=O [compound 20] (HELM PEPTIDE1{K.W.[meA].Q.S.I.L.N.Q.H.V.Q.R.V.W.G}$PEPTIDE1,PEPTIDE1,1:R3-16:R2$$$V2.0; bridges inferred)	106
< 4.52			CC[C@H](C)[C@H](NC(=O)[C@H](CO)NC(=O)[C@H](CCC(=O)O)NC(=O)[C@H](Cc1c[nH]c2ccccc12)NC(=O)[C@@H](N)CCSC)C(=O)N[C@@H](CC(C)C)C(=O)N[C@@H](CC(=O)O)C(=O)N[C@@H](CCC(=O)O)C(=O)N[C@@H](Cc1c[nH]cn1)C(=O)N[C@H](C(=O)N[C@@H](CCC(N)=O)C(=O)N[C@@H](CCCNC(=N)N)C(=O)N[C@H](C(=O)N[C@@H](Cc1c[nH]c2ccccc12)C(=O)NCC(=O)O)C(C)C)C(C)C [compound 22] (H-MWESILDEHVQRVWG-OH)	99.6
< 4.52	> 6.40	0.71	CC[C@H](C)[C@H](NC(=O)[C@H](CO)NC(=O)[C@H](CCC(=O)O)NC(=O)[C@H](Cc1c[nH]c2ccccc12)NC(=O)[C@@H](N)CCSC)C(=O)N[C@@H](CC(C)C)C(=O)N[C@@H](CC(=O)O)C(=O)N[C@@H](CCC(=O)O)C(=O)N[C@@H](Cc1c[nH]cn1)C(=O)N[C@@H](CCSC)C(=O)N[C@@H](CCC(N)=O)C(=O)N[C@@H](CCCNC(=N)N)C(=O)N[C@H](C(=O)N[C@@H](Cc1c[nH]c2ccccc12)C(=O)N[C@@H](CCCNC(=N)N)C(=O)NCC(=O)O)C(C)C [compound 23] (H-MWESILDEHMQRVWRG-OH)	98.9
< 4.52	> 6.40	1	CC[C@H](C)[C@@H]1NC(=O)[C@H](CC(C)C)NC(=O)[C@H](Cc2ccccc2)NC(=O)[C@H](Cc2c[nH]c3ccccc23)NC(=O)[C@H](CCSC)NC(=O)[C@H](CCCNC(=N)N)NC(=O)[C@H](CO)NC(=O)[C@H](CCSC)NC(=O)[C@@H](N)CCCCNC(=O)CNC(=O)[C@H](CCCNC(=N)N)NC(=O)[C@H](Cc2c[nH]c3ccccc23)NC(=O)[C@H](Cc2ccccc2)NC(=O)[C@H](CO)NC1=O [compound 24] (HELM PEPTIDE1{K.M.S.R.M.W.F.L.I.S.F.W.R.G}$PEPTIDE1,PEPTIDE1,1:R3-14:R2$$$V2.0; bridges inferred)	96.8
4.82 to 5.12			CC[C@H](C)[C@@H]1NC(=O)[C@H](CC(C)C)NC(=O)[C@H](CC(C)C)NC(=O)[C@H](Cc2c[nH]c3ccccc23)NC(=O)[C@H](CCSC)NC(=O)[C@H](CCCNC(=N)N)NC(=O)[C@H](CO)NC(=O)[C@H](CCSC)NC(=O)[C@@H](N)CCCCNC(=O)CNC(=O)[C@H](Cc2c[nH]c3ccccc23)NC(=O)[C@H](Cc2ccccc2)NC(=O)[C@H](CO)NC1=O [compound 25] (HELM PEPTIDE1{K.M.S.R.M.W.L.L.I.S.F.W.G}$PEPTIDE1,PEPTIDE1,1:R3-13:R2$$$V2.0; bridges inferred)	97
4.82 to 5.12			CC[C@H](C)[C@@H]1NC(=O)[C@H](CC(C)C)NC(=O)[C@H](Cc2ccccc2)NC(=O)[C@H](Cc2c[nH]c3ccccc23)NC(=O)[C@H](CCSC)NC(=O)[C@@H](N)CCCCNC(=O)CNC(=O)[C@H](Cc2c[nH]c3ccccc23)NC(=O)[C@H](Cc2ccccc2)NC(=O)[C@H](CO)NC1=O [compound 26] (HELM PEPTIDE1{K.M.W.F.L.I.S.F.W.G}$PEPTIDE1,PEPTIDE1,1:R3-10:R2$$$V2.0; bridges inferred)	88
< 4.52			CC[C@H](C)[C@@H]1NC(=O)[C@H](CC(C)C)NC(=O)[C@H](Cc2ccc(O)cc2)NC(=O)[C@H](Cc2c[nH]c3ccccc23)NC(=O)[C@H](CCSC)NC(=O)[C@H](CCCNC(=N)N)NC(=O)[C@H](CO)NC(=O)[C@H](CCSC)NC(=O)[C@@H](N)CCCCNC(=O)CNC(=O)[C@H](Cc2c[nH]c3ccccc23)NC(=O)[C@H](Cc2ccccc2)NC(=O)[C@H](CO)NC1=O [compound 27] (HELM PEPTIDE1{K.M.S.R.M.W.Y.L.I.S.F.W.G}$PEPTIDE1,PEPTIDE1,1:R3-13:R2$$$V2.0; bridges inferred)	96
4.52 to 4.65			CC[C@H](C)[C@@H]1NC(=O)[C@H](CC(C)C)NC(=O)[C@H](Cc2ccccc2)NC(=O)[C@H](Cc2c[nH]c3ccccc23)NC(=O)[C@H](CCSC)NC(=O)[C@H](CCCNC(=N)N)NC(=O)[C@H](CO)NC(=O)[C@H](CCSC)NC(=O)[C@@H](N)CCCCNC(=O)CNC(=O)[C@H](Cc2c[nH]c3ccccc23)NC(=O)[C@H](CC(C)C)NC(=O)[C@H](CO)NC1=O [compound 28] (HELM PEPTIDE1{K.M.S.R.M.W.F.L.I.S.L.W.G}$PEPTIDE1,PEPTIDE1,1:R3-13:R2$$$V2.0; bridges inferred)	91
